Assay: Cleavage kinetics (stability) of tyrosine based linker derivatives in buffer at pH 4 and pH 7.4, HPLC
Format: physicochemical
Conditions: room temperature; for % cleaved pH 4, 0 h / % cleaved pH 4, 24 h: pH 4 solution/acetonitrile; for % cleaved pH 4, 0 h / % cleaved pH 4, 24 h / % cleaved pH 7.4, 0 h / % cleaved pH 7.4, 6 h / % cleaved pH 7.4, 24 h: HPLC peak area; for % cleaved pH 7.4, 0 h / % cleaved pH 7.4, 6 h / % cleaved pH 7.4, 24 h: pH 7.4 buffer/acetonitrile; for cleavage kinetic (in words): summary of Table 1, pH 4 and pH 7.4, up to 24 h
Text: To illustrate the different kinetics of different linkers, simple derivatives of the tyrosine based molecule were synthesized and the cleavage at different time points in buffer at pH 4 and pH 7.4 were monitored. Based on the exact composition of the tyrosine based linker structure the formation of the cyclic urea with concomittant release of the free tyrosine OH group has different cleavage kinetics. These can be easily measured in vitro and used as predictors for the in vivo kinetics.
For the kinetic studies with regard to the stability of the different linkers 0.3 mg of the dry test compound are dissolved in 0.5 ml acetonitrile. For a better dilution the sample is sonified for about 10 seconds. Then 1.0 ml of the buffer solutions are added and the samples are sonified again.
Chemical composition of the solution/buffer which are used: • pH 4: 1 liter of deionized water was adjusted to pH 4 with 1N hydrochloric acid • pH 7.4: 90 g sodium chloride, 13.61 g potassium dihydrogene phosphate and 83.35 g 1 M sodium hydroxide solution were dissolved in 1 liter of deionized water. This solution was diluted with water at the rate of 1:10.
The test compound concentration is analysed by HPLC every hour during 24 hours at room temperature. The quantity of the test compound is determined by the peak areas.
HPLC method: Agilent 1100 with DAD (G1315B), binary pump (g1312A), autosampler (G1329A), column thermostat (G1330B), Column: Kromasil 100 C18/250 mm×4 mm/5 μm, Column temperature: 30° C., Eluent A: water+5 ml perchloric acid/1, Eluent B: acetonitrile, Gradient: 0-1.0 min 90% A, 10% B; 1.0-20.0 min 10% A, 90% B; 20.0-21.0 min 10% A, 90% B; 21.0-23.0 min 90% A, 10% B; 23.0-25.0 min 90% A, 10% B; Flow rate: 1.5 ml/min, Detection: 210 nm, Injection volume: 10 μl.

| Compound | % cleaved pH 4, 0 h [%] | % cleaved pH 4, 24 h [%] | % cleaved pH 7.4, 0 h [%] | % cleaved pH 7.4, 6 h [%] | % cleaved pH 7.4, 24 h [%] | cleavage kinetic (in words) |
| --- | --- | --- | --- | --- | --- | --- |
| NC(=O)[C@H](CSC1CC(=O)N(Cc2ccccc2)C1=O)NC(=O)[C@@H](N)CCNC(=O)Oc1ccc(C[C@H](N)C(=O)Nc2ccccc2)cc1 (stereo partly drawn) [Example 1C, O-{[(3S)-3-Amino-4-({(2R)-1-amino-3-[(1-benzyl-2,5-dioxopyrrolidin-3-yl)sulfanyl]-1-oxopropan-2-yl}amino)-4-oxobutyl]carbamoyl}-N-phenyl-L-tyrosinamide] | 0 | 1 | 0 | 7 | 21 |  |
| NC(=O)[C@H](CSC1CC(=O)N(Cc2ccccc2)C1=O)NC(=O)[C@@H](N)CCCNC(=O)Oc1ccc(C[C@H](N)C(=O)Nc2ccccc2)cc1 (stereo partly shown) [Example 3C] | 0 | 0 | 0 | 2 | 11 | cleaved slowly |
| NCCC[C@H](NC(=O)Oc1ccc(C[C@H](N)C(=O)Nc2ccccc2)cc1)C(=O)N[C@@H](CSC1CC(=O)N(Cc2ccccc2)C1=O)C(N)=O (stereo partly shown) [Example 4C] | 0 | 0 | 0 | 23 | 65 | cleaved quickly |
| NCC[C@H](NC(=O)Oc1ccc(C[C@H](N)C(=O)Nc2ccccc2)cc1)C(=O)N[C@@H](CSC1CC(=O)N(Cc2ccccc2)C1=O)C(N)=O (stereo partly shown) [Example 5C] | 0 | 0 | 0 | 75 | 100 | cleaved quickly |
| N[C@@H](CCNC(=O)Oc1ccc(C[C@H](N)C(=O)Nc2ccccc2)cc1)C(=O)NCCSC1CC(=O)N(Cc2ccccc2)C1=O (stereo partly shown) [Example 6C] | 0 | 0 | 0 | 6 | 20 |  |
| NC(=O)CNC(=O)[C@H](CSC1CC(=O)N(Cc2ccccc2)C1=O)NC(=O)[C@@H](N)CCNC(=O)Oc1ccc(C[C@H](N)C(=O)Nc2ccccc2)cc1 (stereo partly shown) [Example 7C] | 0 | 0 | 0 | 6 | 23 |  |
| NC(=O)[C@H](CSC1CC(=O)N(Cc2ccccc2)C1=O)NC(=O)CNC(=O)[C@@H](N)CCNC(=O)Oc1ccc(C[C@H](N)C(=O)Nc2ccccc2)cc1 (stereo partly shown) [Example 8C] | 0 | 0 | 0 | 6 | 23 |  |
| NC(=O)[C@H](CSC1CC(=O)N(Cc2ccccc2)C1=O)NC(=O)CCCCCNC(=O)[C@@H](N)CCNC(=O)Oc1ccc(C[C@H](N)C(=O)Nc2ccccc2)cc1 (stereo partly shown) [Example 9C] | 0 | 0 | 0 | 7 | 25 |  |
| N[C@@H](CCNC(=O)Oc1ccc(C[C@H](N)C(=O)Nc2ccccc2)cc1)C(=O)NCCOCCOCCOCCn1cc(-c2ccccc2)nn1 [Example 10Cb, O-{[(14S)-14-Amino-13-oxo-1-(4-phenyl-1H-1,2,3-triazol-1-yl)-3,6,9-trioxa-12-azahexadecan-16-yl]carbamoyl}-N-phenyl-L-tyrosinamide] | 0 | 0 | 0 | 4 | 14 | cleaved slowly |
| NC[C@H](NC(=O)Oc1ccc(C[C@H](N)C(=O)Nc2ccccc2)cc1)C(=O)N[C@@H](CSC1CC(=O)N(Cc2ccccc2)C1=O)C(N)=O (stereo partly shown) [Example 11C] | 0 | 19 | 0 | 100 | 100 | cleaved very quickly, even at pH4 |
| N[C@@H](Cc1ccc(OC(=O)NCC[C@H](N)C(=O)N[C@@H](CSC2CC(=O)N(Cc3ccccc3)C2=O)C(=O)Nc2ccccc2)cc1)C(=O)Nc1ccccc1 (stereo partly shown) [Example 12C] | 0 | 0 | 0 | 29 | 76 | cleaved quickly |
